Data reported in patent US8703787B2, “Methods of using ALK inhibitors” (IRM LLC, priority 2011, dated 2014).

What was measured:
NCI-H2228 cells = assay: In vitro cell growth and proliferation (luciferase readout); assay type: cell-based; settings: Homo sapiens, 72 h; NCI-H2228 with EML4-ALK, luciferase-expressing, 3 days incubation
Experimental: NCI-H2228 cells were obtained from the American Type Culture Collection (ATCC) (Manassa, USA) and modified by viral infection to stably express luciferase. For cell growth and proliferation assays, 2250 cells in 50 μL of RPMI media (Gibco, Carlsbad, Calif.) containing 10% fetal bovine serum (FBS) (Gibco, Carlsbad, Calif.) were plated into solid bottom, white 384-well plates (Corning, Acton, Mass.) using μ-Fill instrumentation (Bio-Tek). Plates were incubated 1 hour in a 37° C. tissue culture incubator prior to the addition of compound using MiniTrak instrumentation (Perkin-Elmer). 50 nL of a 1:3 dilution plate of compounds was added to the assay plates, resulting in final concentrations of 10000, 3333, 1111, 370, 123, 41, 14, 4.6, 1.5, 0.5 and 0.17 nM. After compound addition, plates were incubated for 3 days at 37° C. in a tissue culture incubator. At day 3, plates were assayed for cell growth and proliferation by means of measuring luciferase activity in each individual well. In detail, 25 μL of BRIGHT-GLO® (Promega, Madison, Wis.) or BRITELITE™ (PerkinElmer, Waltham, Mass.) was added to each well. After 10 minutes of incubation at room temperature, plates were read using either an Analyst-GT or an Envision plate reader (Molecular Devices, Sunnyvale, Calif.). […]

[1] = tested on: crizotinib resistant NCI-H2228 tumors; assay: Anti-tumor activity in crizotinib resistant NCI-H2228 xenograft tumors; assay type: in vivo, mouse
Experimental: The mouse xenograft tumors derived from NCI-H2228 were treated with crizotinib continuously at 50 mg/kg for 9 days, then 75 mg/kg for 9 days and then 100 mg/kg for 33 days. Alternatively, after xenograft tumors derived from NCI-H2228 were treated with crizotinib for 14 days at 100 mg/kg, the treatment with crizotinib was stopped for a few days until tumors re-grew. Once tumors re-grew, animals were treated with crizotinib at 100 mg/kg until tumors became resistant to crizotinib treatment. Tumors from individual animal were harvested when they became resistant to crizotinib. A few such resistant tumors were randomly selected for further studies as described below. Each resistant tumor were cut into small pieces at harvest and implanted into 5 animals; when tumor size was big enough in the 5 animals, the tumors were harvested and then implanted into 25 animals for compound testing. A piece of harvested tumors was also used for RNA extraction and subsequently sequencing of EML4-ALK transcript.

NCI-H2228 tumors = assay: Subcutaneous xenograft tumor model derived from NCI-H2228 cells; assay type: in vivo, mouse
From the text: The day of implantation, NCI-H2228 cells were harvested with 0.05% Trypsin/EDTA and resuspended in a mixture of RPMI 1640 serum-free medium and matrigel (BD Biosciences #354234, La Jolla, Calif.) at a ratio of 1:1. Five million cells were subcutaneously implanted into the right hind flank of SCID beige mouse. When the tumor size reached a volume of 300-400 mm3, the tumors were harvested and were cut into smaller pieces of 1-2 mm3 in culture medium for passage implanting subcutaneously. After the tumors were consecutively passaged three times in SCID beige mice, the tumors were considered as stock tumors for study implantation. The tumor pieces were kept in a mixture of RPMI1640 serum-free medium and matrigel at a ratio of 1:1 on wet ice for implanting in SCID beige mice. Implantation in […] mice: 2-3 pieces of the tumor with matrigel mixture were subcutaneously implanted into the right flank of the mice. After implantation, the tumors were callipered 3 times per week once tumors became palpable.
SCID beige mice bearing the H2228 tumors were randomized into 5 groups (n=4 mice per group) with an average tumor volume of 85±35 mm3. The test compound was administered by oral gavage. Its exposure in the tumor bearing female SCID beige mice was evaluated on day 14. Tumor growth was calculated by % T/C as follows: % T/C=(ΔT/ΔC)×100, where ΔT>0; or % T/C=(ΔT/ΔTI)×100, where ΔT<0. Changes in tumor volume (Δ volumes) for each treated (T) and control (C) group were calculated for each day tumors were measured by subtracting the median tumor volume on the day of first treatment (staging day) from the median tumor volume on the specified observation day.

[2] = 4-wk GLP toxicology studies / exposure comparison; assay type: in vivo; settings: based on 4-wk GLP toxicology studies, predicted

SMILES	IC50 (NCI-H2228 cells) [µM]	anti-tumor growth activity in crizotinib resistant NCI-H2228 ([1]; FIG. 2)	activity compared with crizotinib at 100 mg/kg ([1]; other crizotinib resistant NCI-H2228 tumors, FIG. 3)	animal body weight loss (NCI-H2228 tumors; dosed orally at 25 mg/kg once a day for 2 weeks)	anti-tumor activity (tumor regression) (NCI-H2228 tumors; dosed orally at 25 mg/kg once a day for 2 weeks, FIG. 1)	tolerability (NCI-H2228 tumors; mouse, in vivo, po, 25 mg/kg)	exposure associated with 50 mg/kg in mouse relative to exposure at the MTD in humans [2]
Cc1cc(Nc2ncc(Cl)c(Nc3ccccc3S(=O)(=O)C(C)C)n2)c(OC(C)C)cc1C1CCNCC1 [Compound 1, 5-chloro-N2-(2-isopropoxy-5-methyl-4-(piperidin-4-yl)phenyl)-N4-[2-(propane-2-sulfonyl)-phenyl]-pyrimidine-2,4-diamine]	0.011	significant anti-tumor growth activity	better activity than crizotinib	not observed	complete tumor regression	well tolerated	below the exposure at the MTD in humans
CC(C)Oc1cc2c(cc1Nc1ncc(Cl)c(Nc3ccccc3S(=O)(=O)C(C)C)n1)C(=O)N(C1CCN(C)CC1)C2 [Compound 6, 6-{5-Chloro-4-[2-(propane-2-sulfonyl)-phenylamino]-pyrimidin-2-ylamino}-5-isopropoxy-2-(1-methyl-piperidin-4-yl)-2,3-dihydro-isoindol-1-one]	0.016	–	–	–	–	–	–
